The experiment concerns the target Kappa-type opioid receptor (Homo sapiens, UniProt P41145).

Sequence of Kappa-type opioid receptor (P41145 whole entry): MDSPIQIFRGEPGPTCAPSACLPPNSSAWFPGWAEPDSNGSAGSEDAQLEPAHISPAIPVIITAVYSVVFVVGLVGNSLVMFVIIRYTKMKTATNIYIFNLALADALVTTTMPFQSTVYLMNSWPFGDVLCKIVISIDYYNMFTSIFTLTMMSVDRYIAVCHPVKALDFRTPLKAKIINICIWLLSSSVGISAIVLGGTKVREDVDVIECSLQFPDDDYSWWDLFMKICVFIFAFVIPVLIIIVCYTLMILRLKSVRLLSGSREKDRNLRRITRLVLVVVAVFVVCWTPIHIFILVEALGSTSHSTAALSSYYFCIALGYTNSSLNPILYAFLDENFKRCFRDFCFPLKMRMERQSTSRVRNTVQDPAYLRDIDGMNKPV

Regarding `CC[C@H](C)[C@H](NC(=O)[C@H](CCCNC(=N)N)NC(=O)[C@H](CCCNC(=N)N)NC(=O)[C@H](CC(C)C)NC(=O)[C@H](Cc1ccccc1)NC(=O)CNC(=O)CNC(=O)[C@@H](N)Cc1ccc(O)cc1)C(=O)N[C@@H](CCCNC(=N)N)C(=O)N1CCC[C@H]1C(=O)N[C@@H](CCCCN)C(=O)N[C@@H](CC(C)C)C(=O)N[C@@H](CCCCN)C(=O)O` [Dynorphin A (1-13)], the Ki came to 343 nM.

The term Ki denotes a measure of affinity in units of concentration, obtained from inhibition or displacement.

For the origin of these results see BindingDB's records for doi:10.1021/bi050490d (Case Western Reserve University, 2005).
